# ± gives the expanded uncertainty stated by the source.
# Assay: refractive index (other wavelength) (dimensionless); xn = mol fraction of the nth substance listed
# Settings: 94.64 kPa, Liquid, Standard Abbe refractometry, x1 = 1
smiles,measurement,setting,value
"CC(O)CO (stereo not drawn) [1,2-propanediol] + OCCCO",refractive index,"293.15 K, Wavelength=404.7 nm",1.445 ± 0.002
same,refractive index,"293.15 K, Wavelength=435.8 nm",1.44204 ± 0.002
same,refractive index,"293.15 K, Wavelength=486.1 nm",1.43722 ± 0.002
same,refractive index,"293.15 K, Wavelength=546.1 nm",1.43406 ± 0.002
same,refractive index,"293.15 K, Wavelength=587.6 nm",1.43227 ± 0.002
same,refractive index,"293.15 K, Wavelength=632.8 nm",1.43023 ± 0.002
same,refractive index,"293.15 K, Wavelength=644 nm",1.43008 ± 0.002
same,refractive index,"293.15 K, Wavelength=706.5 nm",1.42866 ± 0.002
same,refractive index,"298.15 K, Wavelength=404.7 nm",1.4429 ± 0.002
same,refractive index,"298.15 K, Wavelength=435.8 nm",1.43967 ± 0.002
same,refractive index,"298.15 K, Wavelength=486.1 nm",1.43566 ± 0.002
same,refractive index,"298.15 K, Wavelength=546.1 nm",1.43245 ± 0.002
same,refractive index,"298.15 K, Wavelength=587.6 nm",1.4305 ± 0.002
same,refractive index,"298.15 K, Wavelength=632.8 nm",1.429 ± 0.002
same,refractive index,"298.15 K, Wavelength=644 nm",1.4289 ± 0.002
same,refractive index,"298.15 K, Wavelength=706.5 nm",1.42701 ± 0.002
same,refractive index,"303.15 K, Wavelength=404.7 nm",1.44135 ± 0.002
same,refractive index,"303.15 K, Wavelength=435.8 nm",1.43785 ± 0.002
same,refractive index,"303.15 K, Wavelength=486.1 nm",1.43417 ± 0.002
same,refractive index,"303.15 K, Wavelength=546.1 nm",1.43096 ± 0.002
same,refractive index,"303.15 K, Wavelength=587.6 nm",1.42927 ± 0.002
same,refractive index,"303.15 K, Wavelength=632.8 nm",1.42774 ± 0.002
same,refractive index,"303.15 K, Wavelength=644 nm",1.42734 ± 0.002
same,refractive index,"303.15 K, Wavelength=706.5 nm",1.42571 ± 0.002
same,refractive index,"308.15 K, Wavelength=404.7 nm",1.43955 ± 0.002
same,refractive index,"308.15 K, Wavelength=435.8 nm",1.43622 ± 0.002
same,refractive index,"308.15 K, Wavelength=486.1 nm",1.43239 ± 0.002
same,refractive index,"308.15 K, Wavelength=546.1 nm",1.42919 ± 0.002
same,refractive index,"308.15 K, Wavelength=587.6 nm",1.42752 ± 0.002
same,refractive index,"308.15 K, Wavelength=632.8 nm",1.426 ± 0.002
same,refractive index,"308.15 K, Wavelength=644 nm",1.42565 ± 0.002
same,refractive index,"308.15 K, Wavelength=706.5 nm",1.42397 ± 0.002
same,refractive index,"313.15 K, Wavelength=404.7 nm",1.43771 ± 0.002
same,refractive index,"313.15 K, Wavelength=435.8 nm",1.43437 ± 0.002
same,refractive index,"313.15 K, Wavelength=486.1 nm",1.43055 ± 0.002
same,refractive index,"313.15 K, Wavelength=546.1 nm",1.42738 ± 0.002
same,refractive index,"313.15 K, Wavelength=587.6 nm",1.42572 ± 0.002
same,refractive index,"313.15 K, Wavelength=632.8 nm",1.4242 ± 0.002
same,refractive index,"313.15 K, Wavelength=644 nm",1.42386 ± 0.002
same,refractive index,"313.15 K, Wavelength=706.5 nm",1.42219 ± 0.002
same,refractive index,"318.15 K, Wavelength=404.7 nm",1.43584 ± 0.002
same,refractive index,"318.15 K, Wavelength=435.8 nm",1.43252 ± 0.002
same,refractive index,"318.15 K, Wavelength=486.1 nm",1.42875 ± 0.002
same,refractive index,"318.15 K, Wavelength=546.1 nm",1.42557 ± 0.002
same,refractive index,"318.15 K, Wavelength=587.6 nm",1.42392 ± 0.002
same,refractive index,"318.15 K, Wavelength=632.8 nm",1.42243 ± 0.002
same,refractive index,"318.15 K, Wavelength=644 nm",1.42208 ± 0.002
same,refractive index,"318.15 K, Wavelength=706.5 nm",1.42043 ± 0.002

# — the NIST ThermoML archive (doi:10.1016/j.jct.2016.01.019)
